Columns and labels:
[1] = system: ddhA gene (promoter Pddh of ddh operon); assay: RT-PCR analysis of ddhA gene transcription induction by sulfur compounds; format: cell-based, Rv. sulfidophilum W-1S; conditions: 3 days in 4CMOM medium, bright aerobic and dark aerobic condition
Protocol: Extraction of RNA was carried out using RNeasy Mini Kit (QIAGEN) according to the protocol attached thereto. For dissolving the cells at that time, lysozyme was added thereto in the indicated concentration. For the removal of the contaminated DNA, DNase I (TaKaRa) was used by the method indicated in the protocol together with the buffer attached thereto. Incubation was carried out at 37° C. for 30 minutes and, after that, RNA was purified via a PCI treatment and a precipitating operation with ethanol. A reverse transcription reaction was carried out where 1 μg of purified RNA as a template using an RNA PCR Kit (AMV) Ver. 2.1 (TaKaRa). In the reverse transcription reaction, things contained in the kit, i.e. reverse transcriptase, RNase inhibitor, random nonamer, buffer, dNTP and MgCl2 were used and the reaction was conducted at 45° C. for 28 minutes. A PCR was carried out by the same manner as in the above mentioned “4: PCR” using 4 μl of the solution after the reverse transcription reaction as a template.
Firstly, investigation of a DMS-inductive property of Pddh was planned. Primers ddhA1 and ddhA2 were designed based on ddhA gene sequence on the database. […]

DMS biosensor strain = assay: Response of DMS biosensor strain (pSDMS in pigment variant): color tone and rate of red pigment by HPLC; format: cell-based, Rv. sulfidophilum; conditions: third day of incubation, bright aerobic condition, n=3
Protocol: When incubation of a bacterium strain was conducted in 10 ml of medium in a test tube under various conditions (under slightly aerobic and bright condition; under slightly aerobic and dark condition; and under anaerobic and bright condition), the incubation was done for three days. The culture liquid (1 ml) was placed in an Eppendorf tube, the pellets after centrifugal separation was frozen at −80° C. for 2 hours and then freeze-dried for one night. An appropriate amount (100 μl to 500 μl) of a mixed liquid of acetone and methanol was added to the resulting freeze-dried product, subjected to vortex for 2 minutes and then centrifuged for 5 minutes at 14,000 rpm using a portable centrifuge and the resulting supernatant liquid was used as a sample for an HPLC. […]
Since DMS is hardly soluble in water, ethanol was used as a solvent for the manufacture of concentrated stocks and preparation of diluted series. […] Analysis of pigment composition was conducted via an HPLC analysis the same as before and, from the value of area of each peak shown in the resulting HPLC chart, rate of red pigments (DMSO and SO) to the sum of total carotenoid pigment (DMSO, DMSE, SO, SE and neurosporene) was calculated. For each sample, mean value and standard deviation was calculated from the above value and a graph was prepared. […]

SENS-AS strain = assay: Specificity of SENS-AS strain to metals other than arsenic; format: cell-based, Rv. sulfidophilum
Description: Therefore, specificity to metal of the SENS-AS strain was investigated by adding a sample containing metal other than arsenic to the SENS-AS strain and checking the responding property to those samples. With regard to the metal other than arsenic, there were used antimony and bismuth which have been reported to inherently show a responding property to ArsR and also cobalt, cadmium, nickel, zinc and lead where responding property in a protein having the similar sequence to metal-bonding site of ArsR has been confirmed already [L. S. Busenlehner, et al., (2003) FEMS Microbiol. Rev., 27:131-43]. The responding property was also tested for a solution in which iron, manganese, copper and aluminum which are abundantly contained in tap water were mixed. The experiment was carried out by the same method as in the detection of arsenic, rate of red pigments (DMSO and SO) to the total sum of DMSO, DMSE, SO and SE was calculated from the area value of each peak shown in the chart prepared as a result of an HPLC analysis, mean value and standard deviation for each sample were calculated and graphs were prepared.
From the above results, it was now made clear that the arsenic-detecting biosensor SENS-AS strain responded arsenic and bismuth. However, in order to respond to bismuth, a bismuth concentration of as high as 100-fold as compared with arsenic was necessary.

| SMILES | ddhA gene transcription induction [1] | DMS concentration giving significant accumulation of SO and discriminable color tone (DMS biosensor strain) [mM] | concentration needed for response as compared with arsenic (SENS-AS strain) [fold] |
| --- | --- | --- | --- |
| CSC [DMS, dimethyl sulfide] | apparent ddhA gene transcription induction was observed | 3 | – |
| [Bi] [bismuth] | – | – | 100 |
| C[S+](C)[O-] [dimethyl sulfoxide] | no significant induction of ddhA gene transcription | – | – |

From patent US20080044829A1, “Biosensor Utilizing Pigment-Synthesizing Gene Of A Purple Non-Sulfur Bacterium And A Method For Preparing Such A Biosensor” (priority 2004, published 2008)
